Consider 27 molecules from patent US9856216B2, “Compounds as TNIK, IKKε and TBK1 inhibitors and pharmaceutical composition comprising same” (GREEN CROSS CORPORATION, priority 2015, dated 2018).

Bounds are passed on as bounds.

Format in all cases: biochemical
One test concerns the target T1, TBK1 (Homo sapiens, UniProt Q9UHD2).
T1 construct: purchased Promega V3991
T1 sequence (Q9UHD2 1-729): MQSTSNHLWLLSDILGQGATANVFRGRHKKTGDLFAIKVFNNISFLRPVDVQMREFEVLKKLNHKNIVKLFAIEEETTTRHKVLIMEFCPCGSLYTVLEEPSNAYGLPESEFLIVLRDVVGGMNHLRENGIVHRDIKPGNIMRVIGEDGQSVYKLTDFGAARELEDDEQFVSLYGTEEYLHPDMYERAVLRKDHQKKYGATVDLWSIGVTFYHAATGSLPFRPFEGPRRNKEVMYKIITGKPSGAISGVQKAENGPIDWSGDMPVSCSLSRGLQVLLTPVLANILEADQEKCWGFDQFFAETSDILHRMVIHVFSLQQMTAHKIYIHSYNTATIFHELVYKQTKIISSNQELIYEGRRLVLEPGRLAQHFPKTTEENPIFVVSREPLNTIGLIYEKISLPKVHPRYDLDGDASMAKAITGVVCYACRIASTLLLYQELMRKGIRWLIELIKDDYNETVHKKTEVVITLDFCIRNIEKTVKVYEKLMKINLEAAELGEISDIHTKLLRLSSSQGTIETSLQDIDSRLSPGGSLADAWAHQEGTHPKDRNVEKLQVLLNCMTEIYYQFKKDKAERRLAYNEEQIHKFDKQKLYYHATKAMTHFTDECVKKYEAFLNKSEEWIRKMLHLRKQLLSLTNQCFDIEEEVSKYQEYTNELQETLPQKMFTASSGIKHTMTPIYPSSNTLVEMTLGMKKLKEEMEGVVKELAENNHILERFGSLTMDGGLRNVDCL
In words: ADP-Glo Kinase Assay, inhibition activity on TBK1. As to the method:
(§1) The inhibition activities on TNIK, IKKε and TBK1 were measured by a luminometer, TNIK/IKKε/TBK1 Kinase Enzyme System (Promega, Ca# V4158; Invitrogen, PR8031B, Promega, Ca# V3991) and ADP-Glo Kinase Assay using ADP-Glo™ Kinase Analysis Kit (Promega, Ca# V9101) and a kinase reaction buffer [40 mM Tris(pH 7.5), 20 mM MgCl2, 0.1 mg/mL BSA] in accordance with the manufacturer's protocol.

A further test addresses T2, IKKε (Homo sapiens, UniProt Q14164).
T2 construct: purchased Invitrogen PR8031B
T2 sequence (Q14164 1-716): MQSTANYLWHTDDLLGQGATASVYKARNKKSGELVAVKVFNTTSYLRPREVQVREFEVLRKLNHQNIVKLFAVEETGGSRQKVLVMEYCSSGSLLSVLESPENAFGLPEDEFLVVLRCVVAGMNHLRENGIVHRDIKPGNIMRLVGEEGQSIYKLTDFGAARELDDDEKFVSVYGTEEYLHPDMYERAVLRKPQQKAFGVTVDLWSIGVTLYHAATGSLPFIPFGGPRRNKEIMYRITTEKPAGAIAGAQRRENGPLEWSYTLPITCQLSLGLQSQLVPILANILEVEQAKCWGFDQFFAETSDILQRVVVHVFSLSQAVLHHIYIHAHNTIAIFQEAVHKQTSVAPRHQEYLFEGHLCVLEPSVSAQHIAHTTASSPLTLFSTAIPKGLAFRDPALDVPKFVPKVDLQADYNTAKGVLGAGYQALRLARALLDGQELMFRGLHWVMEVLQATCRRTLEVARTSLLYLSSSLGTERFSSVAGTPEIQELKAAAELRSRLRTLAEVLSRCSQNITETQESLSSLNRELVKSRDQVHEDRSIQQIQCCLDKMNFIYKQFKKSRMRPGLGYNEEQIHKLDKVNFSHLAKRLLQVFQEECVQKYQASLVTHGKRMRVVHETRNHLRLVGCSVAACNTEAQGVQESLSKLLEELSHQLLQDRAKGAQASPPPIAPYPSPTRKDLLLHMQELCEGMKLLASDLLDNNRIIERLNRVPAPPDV
The experiment in a line: ADP-Glo Kinase Assay, inhibition activity on IKKε. As to the method: as §1
Background: In ADP-Glo the light output rises with the ADP produced.

The target in the next test is T3, TNIK (Homo sapiens, UniProt Q9UKE5).
T3 construct: purchased Promega V4158
T3 sequence (Q9UKE5 1-367 limits assumed): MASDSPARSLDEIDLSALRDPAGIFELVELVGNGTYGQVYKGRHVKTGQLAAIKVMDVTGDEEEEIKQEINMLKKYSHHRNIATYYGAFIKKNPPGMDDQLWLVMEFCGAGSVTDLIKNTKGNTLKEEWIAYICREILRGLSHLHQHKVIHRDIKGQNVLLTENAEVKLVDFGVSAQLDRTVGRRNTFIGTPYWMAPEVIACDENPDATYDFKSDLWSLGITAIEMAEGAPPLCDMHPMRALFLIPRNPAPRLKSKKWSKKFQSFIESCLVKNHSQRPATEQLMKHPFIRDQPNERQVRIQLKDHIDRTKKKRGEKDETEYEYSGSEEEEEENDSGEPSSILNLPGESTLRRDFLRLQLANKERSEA
The experiment in a line: ADP-Glo Kinase Assay, inhibition activity on TNIK. The conditions noted are these: read-out: TNIK. As to the method: as §1

Consider `CC(=O)Nc1ccc(-c2ccnc(Nc3cccc(F)c3)n2)c2c1C(=O)NC2` [Example 163, N-(7-(2-((3-fluorophenyl)amino)pyrimidin-4-yl)-3-oxoisoindolin-4-yl) acetamide], for which the IC50 at TBK1 was 4000 nM; on IKKε it was greater than 10000 nM. Taken in the same sequence, the figures for `COc1ccc(Nc2nccc(-c3ccc(N)c4c3CNC4=O)n2)cc1` [Example 75, 7-Amino-4-(2-((4-methoxyphenyl)amino)pyrimidin-4-yl) isoindolin-1-one] were 110 nM and 360 nM. On to `COc1cccc(Nc2nccc(-c3ccc(NC(C)=O)c4c3CNC4=O)n2)c1` [Example 162, N-(7-(2-((3-methoxyphenyl)amino)pyrimidin-4-yl)-3-oxoisoindolin-4-yl)acetamide], for which the IC50 at TBK1 is 100 nM; on IKKε it was 630 nM. Take `Nc1ccc(-c2ccnc(N3CCOCC3)n2)c2c1C(=O)NC2` [Example 82, 7-Amino-4-(2-morpholinopyrimidin-4-yl)isoindolin-1-one]: the IC50 against TBK1 and against IKKε was greater than 10000 nM in each case. Take `CN1CCN(c2nccc(-c3ccc(N)c4c3CNC4=O)n2)CC1` [Example 81, 7-Amino-4-(2-(4-methylpiperazin-1-yl)pyrimidin-4-yl) isoindolin-1-one]: the IC50 at TBK1 and at IKKε was greater than 10000 nM each time. On to `CCCCNc1ccc(-c2ccnc(Nc3cccc(OC)c3)n2)c2c1C(=O)NC2` [Example 268, 7-(Butylamino)-4-(2-((3-methoxyphenyl)amino)pyrimidin-4-yl)isoindolin-1-one], for which the figures for the IC50 against TBK1 and against IKKε were 320 nM and 880 nM, respectively. Turning to `CC(=O)Nc1ccc(-c2cnc3[nH]cc(-c4ccc(N)c5c4CNC5=O)c3c2)cc1` [Example 85, N-(4-(3-(7-amino-1-oxoisoindolin-4-yl)-1H-pyrrolo[2,3-b]pyridine-5-yl)phenyl)acetamide], the IC50 at TBK1 is 72 nM; at IKKε it was 160 nM. On the same counts, the results for `Nc1ccc(-c2ccnc(Nc3ccc(F)cc3)n2)c2c1C(=O)NC2` [Example 74, 7-Amino-4-(2-((4-fluorophenyl)amino)pyrimidin-4-yl) isoindolin-1-one] are 43 nM and 560 nM.

On to `CC(=O)Nc1ccc(-c2ccnc(Nc3ccc(C)cc3)n2)c2c1C(=O)NC2` [Example 165, N-(3-oxo-7-(2-(p-tolylamino)pyrimidin-4-yl)isoindolin-4-yl) acetamide], for which the IC50 against TBK1 and at IKKε was greater than 10000 nM throughout. `CC(=O)Nc1ccc(-c2ccnc(Nc3cccc(C)c3)n2)c2c1C(=O)NC2` [Example 164, N-(3-oxo-7-(2-(m-tolylamino)pyrimidin-4-yl)isoindolin-4-yl) acetamide]: the IC50 at TBK1 was found to be 350 nM; at IKKε, 830 nM. Consider `CCCCN(C)c1ccc(-c2ccnc(Nc3cccc(OC)c3)n2)c2c1C(=O)N(C)C2` [Example 270, 7-(Butyl(methyl)amino)-4-(2-((3-methoxyphenyl)amino)pyrimidin-4-yl)-2-methylisoindolin-1-one], for which the IC50 against TBK1 and on IKKε was greater than 10000 nM throughout. As for `CCC(=O)Nc1ccc(-c2ccnc(Nc3cccc(OC)c3)n2)c2c1C(=O)NC2` [Example 166, N-(7-(2-((3-methoxyphenyl)amino)pyrimidin-4-yl)-3-oxoisoindolin-4-yl)propionamide], the IC50 against TBK1 was 94 nM; against IKKε it was greater than 10000 nM. As for `CCCCN(C)c1ccc(-c2ccnc(Nc3cccc(OC)c3)n2)c2c1C(=O)NC2` [Example 269, 7-(Butyl(methyl)amino)-4-(2-((3-methoxyphenyl)amino)pyrimidin-4-yl)isoindolin-1-one], the values for the IC50 on TBK1 and on IKKε were 2550 nM and 5970 nM, respectively.

As for `Nc1ccc(-c2ccnc(Nc3ccccc3)n2)c2c1C(=O)NC2` [Example 72, 7-Amino-4-(2-(phenylamino)pyrimidin-4-yl)isoindolin-1-one], the IC50 against TBK1 amounted to 90 nM; against IKKε it was 280 nM.

For the molecule `Nc1ccc(-c2ccnc(Nc3cccc(F)c3)n2)c2c1C(=O)NC2` [Example 73, 7-Amino-4-(2-((3-fluorophenyl)amino)pyrimidin-4-yl) isoindolin-1-one], the IC50 at TBK1 worked out at 35 nM; against IKKε, 350 nM. As for `CC(=O)Nc1cccc(Nc2nccc(-c3ccc(N)c4c3CNC4=O)n2)c1` [Example 77, N-(3-((4-(7-amino-1-oxoisoindolin-4-yl)pyrimidin-2-yl)amino)phenyl)acetamide], the IC50 on TBK1 was 27 nM; against IKKε, 200 nM.

Regarding `COc1cccc(Nc2nccc(-c3ccc(N(C)C)c4c3CNC4=O)n2)c1` [Example 266, 7-(Dimethylamino)-4-(2-((3-methoxyphenyl)amino)pyrimidin-4-yl)isoindolin-1-one], the results for the IC50 at TBK1 and at IKKε were 750 nM and 1960 nM, respectively. As to `CC(=O)Nc1ccc(Nc2nccc(-c3ccc(N)c4c3CNC4=O)n2)cc1` [Example 76, N-(4-((4-(7-amino-1-oxoisoindolin-4-yl)pyrimidin-2-yl)amino)phenyl)acetamide], the IC50 against TBK1 is 100 nM; against IKKε, 350 nM. With `CN(C)c1ccc(-c2ccnc(Nc3cccc(F)c3)n2)c2c1C(=O)NC2` [Example 267, 7-(Dimethylamino)-4-(2-((3-fluorophenyl)amino)pyrimidin-4-yl)isoindolin-1-one], the IC50 on TBK1 turned out to be 3980 nM; on IKKε it was 5510 nM. Regarding `COc1cccc(Nc2cc(-c3ccc(N)c4c3CNC4=O)ncn2)c1` [Example 78, 7-Amino-4-(6-((3-methoxyphenyl)amino)pyrimidin-4-yl) isoindolin-1-one], the IC50 against TBK1 stood at 190 nM; against IKKε, 1390 nM. Regarding `COc1cccc(Nc2ccnc(-c3ccc(N)c4c3CNC4=O)c2)c1` [Example 69, 7-Amino-4-(4-((3-methoxyphenyl)amino)pyridin-2-yl) isoindolin-1-one], the IC50 at TBK1 is greater than 10000 nM. At TBK1, `Nc1ccc(-c2c[nH]c3ncc(-c4ccccc4)cc23)c2c1C(=O)NC2` [Example 79, 7-Amino-4-(5-phenyl-1H-pyrrolo[2,3-b]pyridin-3-yl) isoindolin-1-one] showed an IC50 of 640 nM. For the molecule `O=C(Nc1ccc(Nc2ccccc2Cl)c2c1C(=O)NC2)c1ccc(NCCN2CCCCC2)cc1` [Example 454, N-(7-((2-chlorophenyl)amino)-3-oxoisoindolin-4-yl)-4-((2-(piperidin-1-yl)ethyl)amino)benzamide], at TNIK, the IC50 turned out to be 530 nM.

As for `Cc1ccccc1Nc1ccc(NC(=O)c2ccc(NCCCN3CCCC3)cc2)c2c1CNC2=O` [Example 476, N-(3-oxo-7-(o-tolylamino)isoindolin-4-yl)-4-((3-(pyrrolidin-1-yl)propyl)amino)benzamide], the IC50 on TNIK worked out at 500 nM.

Consider `COc1cccc(-c2ccc(NC(=O)c3ccc(NCCCN4CCOCC4)cc3)c3c2CNC3=O)c1OC` [Example 296, N-(7-(2,3-dimethoxyphenyl)-3-oxoisoindolin-4-yl)-4-((3-morpholinopropyl)amino)benzamide], for which the IC50 at TNIK came to 85 nM. Turning to `CC(C)Oc1ccc(-c2ccc(NC(=O)c3ccccc3)c3c2CNC3=O)cc1` [Example 40, N-(7-(4-isopropoxyphenyl)-3-oxoisoindolin-4-yl)benzamide], the IC50 on TNIK is greater than 20000 nM. `O=C(Nc1ccc(-c2cc3ccccc3o2)c2c1C(=O)NC2)c1ccc(NCCN2CCCC2)cc1` [Example 384, N-(7-(benzofuran-2-yl)-3-oxoisoindolin-4-yl)-4-((2-(pyrrolidin-1-yl)ethyl)amino)benzamide]: on TNIK, the IC50 is 1110 nM.
